According to patent publication US9162977B2, “Synthetic ion channels” (The University of Hong Kong, priority 2006, dated 2015):
Entries after “also recorded” stand apart in the source; their conditions may differ.

Assays:
[1] = tested on: human embryonic kidney (HEK 293) cells; experiment: Whole-cell patch-clamp recording of chloride currents; assay type: cell-based
Protocol: The whole-cell configuration of the patch-clamp technique was used to examine the electrophysiological properties of the ionic currents induced by Example 2 in human embryonic kidney (HEK 293) cells. HEK 293 cell line originally obtained from the American Type Culture Collection, were cultured in DMEM supplemented with 10% FBS and 100 IU/ml penicillin G and 0.1 mg/ml streptomycin. Cells were grown at 37° C. in a 5% CO2 humidified incubator. Whole-cell chloride currents were recorded by using an EPC 9 patch clamp amplifier (HEKA Elektronik, Lambrecht/Pfalz, Germany) in voltage-clamp mode, controlled by Pulse/PulseFit 8.7 software (HEKA). Patch pipettes (resistance, 3-5 MΩ) were filled with a solution internal pipette solution containing CsCl 140, MgCl2 1, HEPES 10, EGTA 5, Na2ATP 5 (in mmol/L, pH 7.2 with CsOH). The bath solution contained NaCl 140, CsCl 5, CaCl2 1, MgCl2 1, HEPES 10 (in mmol/L, pH 7.4 with CsOH). After gigaohm seals were obtained, the membrane was ruptured with a pulsed negative pressure. Pipette and membrane capacitance were automatically compensated. Series resistance was typically compensated by 70%. […] All macroscopic currents were sampled at 50 kHz and filtered at 5 kHz, and data were analyzed with PulseFit (HEKA). Changes of Cl current were detected from the same cells before and after exposure to the bath solution containing Example 2 at the concentration of 50 nM. […]

[2] = pH-stat fluorometric transport assay (HPTS-loaded liposomes); assay type: biochemical
Text: This Example illustrates that the compound of Example 2 mediates chloride release when incorporated into liposomes. The liposome-based pH-stat fluorometric assay is an assay routinely used for identification of physiologically relevant ionophores, which are disclosed in (a) Deng, G., Dewa, T. and Regen, S. L. J. Am. Chem. Soc. 1996, 118, 8975; (b) Schlesinger, P. H., Ferdani, R., Liu, J., Pajewska, J., Pajewski, R., Saito, M., Shabany, H. and Gokel, G. W. J. Am. Chem. Soc. 2002, 124, 1848; (c) Sidorov, V., Kotch, F. W., Abdrakhmanova, G., Mizani, R., Fettinger, J. C. and Davis, J. T. J. Am. Chem. Soc. 2002, 124, 2267; (d) Sidorov, V., Kotch, F. W., Kuebler, J. L., Lam, Y.-F. and Davis, J. T. J. Am. Chem. Soc. 2003, 125, 2840; and (e) Baumeister, B., Sakai, N. and Matile, S. Angew. Chem., Int. Ed. 2000, 39, 1955, all of which are incorporated herein by reference. For example, in this assay, a controlled amount of the base and potential ionophore is added to a suspension of liposomes containing a pH-sensitive dye, 8-hydroxypyrene-1,3,6-trisulfonate (HPTS, pyranine). The resulting pH gradient across the bilayer membrane causes the efflux of hydronium ions or the influx of hydroxide ions and builds up an electrostatic potential. This potential can be compensated by the efflux of anions or influx of cations (H^+/M^+ or OH^−/A^− antiport and H^+/A^− or M^+/OH^− symport mechanisms are possible). If the compound of interest mediates such ion transport, the efflux of hydronium ions or the influx of hydroxide ions continues altering the […] pH and the fluorescence of the reporter dye.
Example 2-mediated chloride release was determined in large unilamellar vesicles (LUVs) of 100 nm average dimension, as reported in Sidorov, V., Kotch, F. W., Abdrakhmanova, G., Mizani, R., Fettinger, J. C. and Davis, J. T. J. Am. Chem. Soc. 2002, 124, 2267. […] Importantly, Example 2 mediated electrolyte exchange with high anion selectivity. It mediated electrolyte exchange in the presence of chloride but not in the presence of sulfate (see FIG. 6).

[3] = Single-channel recording by patch-clamp on giant liposomes; assay type: biochemical
Text: Single-channel recording, using patch clamp techniques, is the most critical test for identifying ion channel formation, which is distinguished from other ion transport mechanisms such as ion carriers, and quantifying ion transport efficiency of a membrane channel. The channel-forming activity of Example 2 incorporated in lipid bilayers is examined using patch-clamp technique on giant liposomes.
The two key properties of ion channels in nature are ion selectivity, that is, a channel permits only certain ionic species to flow through its pore, and gating referring to the mechanism of channel opening and closing.

SMILES: CC(C)CNC(=O)[C@@H](CC(C)C)ONC(=O)c1cccc(C(=O)NO[C@H](CC(C)C)C(=O)NCC(C)C)c1 [Example 2]
- whole cell (chloride) currents ([1]; 50 nM in bath solution, room temperature, FIG. 9): dramatically increases cell chloride currents; also recorded: large increase
- induced whole cell currents in the presence of an anion transport inhibitor ([1]; in the presence of DIDS): not reduced
- melting point: 176 to 178 °C
- exchange between extra- and intravesicular electrolytes (chloride release) ([2]; LUVs of 100 nm, NaCl extra- and intravesicular buffers, FIG. 5): rapid, concentration-dependent exchange
- transport activity in LUVs loaded with sulfate ([2]; LUVs symmetrically loaded with Na2SO4, FIG. 6): no transport activity was detected
- chloride transport across lipid bilayers of chloride-containing liposomes ([2]; LUVs, NaCl extra- and intravesicular buffers, FIG. 7 and FIG. 12): mediates chloride transport across the bilayer
- change in conductance or reversal potential ([3]; NMDG-Cl in the bath solution replaced by KCl): no measurable change
- ion selectivity of the channels formed ([3]; giant liposomes, patch clamp): chloride selectivity; also recorded: anion selective
- gating of the channels formed ([3]; giant liposomes, patch clamp, FIG. 8): voltage dependent gating; also recorded: voltage-gated
- primary single-channel conductance ([3]; symmetric 0.2 M N-methyl-glucamine hydrochloride (NMDG-Cl) solutions, compound in bath solution, FIG. 8): 54 pS
- channel open probability (Po) and frequency ([3]; upon increasing voltages of lipid bilayers within a physiologically relevant range, FIG. 8): enhanced steeply

SMILES: CC(C)CNC(=O)[C@H](CC(C)C)OC(=O)c1cccc(C(=O)O[C@@H](CC(C)C)C(=O)NCC(C)C)c1 [Example 9]
- melting point: 137 to 139 °C

SMILES: CC(C)CNC(=O)[C@@H](CC(C)C)ONC(=O)c1ccccc1 [Example 6]
- melting point: 130 to 132 °C

SMILES: CC(C)CNC(=O)[C@@H](CC(C)C)ONC(=O)c1cccc(C(=O)NO[C@H](CC(C)C)C(=O)NCC(C)C)n1 [Example 7]
- melting point: 175 to 177 °C

SMILES: CCCCCCCCCCCCCCCCCCNC(=O)[C@@H](CC(C)C)ONC(=O)c1cccc(C(=O)NO[C@H](CC(C)C)C(=O)NCCCCCCCCCCCCCCCCCC)c1 [Example 5]
- melting point: 88 to 90 °C

SMILES: CC(C)CNC(=O)[C@H](CC(C)C)NC(=O)c1cccc(C(=O)N[C@@H](CC(C)C)C(=O)NCC(C)C)c1 [Example 8]
- melting point: 240 to 242 °C

SMILES: CC(C)C[C@@H](ONC(=O)c1cccc(C(=O)NO[C@H](CC(C)C)C(=O)OC(C)(C)C)c1)C(=O)OC(C)(C)C [Example 1]
- melting point: 57 to 59 °C
